Experimental data published in ChEMBL document CHEMBL1125855, “C-2 desmethyl seco-mevinic acids. Monocyclic HMG-CoA reductase inbibitors” (Bioorg Med Chem Lett, 1991).

How the values were obtained:
[1] = target: T1, 3-hydroxy-3-methylglutaryl-coenzyme A reductase (Homo sapiens, UniProt P04035); assay: (§1) In vitro ability to inhibit HMG-CoA reductase; settings: read-out: I50
T1 sequence (P04035 whole entry): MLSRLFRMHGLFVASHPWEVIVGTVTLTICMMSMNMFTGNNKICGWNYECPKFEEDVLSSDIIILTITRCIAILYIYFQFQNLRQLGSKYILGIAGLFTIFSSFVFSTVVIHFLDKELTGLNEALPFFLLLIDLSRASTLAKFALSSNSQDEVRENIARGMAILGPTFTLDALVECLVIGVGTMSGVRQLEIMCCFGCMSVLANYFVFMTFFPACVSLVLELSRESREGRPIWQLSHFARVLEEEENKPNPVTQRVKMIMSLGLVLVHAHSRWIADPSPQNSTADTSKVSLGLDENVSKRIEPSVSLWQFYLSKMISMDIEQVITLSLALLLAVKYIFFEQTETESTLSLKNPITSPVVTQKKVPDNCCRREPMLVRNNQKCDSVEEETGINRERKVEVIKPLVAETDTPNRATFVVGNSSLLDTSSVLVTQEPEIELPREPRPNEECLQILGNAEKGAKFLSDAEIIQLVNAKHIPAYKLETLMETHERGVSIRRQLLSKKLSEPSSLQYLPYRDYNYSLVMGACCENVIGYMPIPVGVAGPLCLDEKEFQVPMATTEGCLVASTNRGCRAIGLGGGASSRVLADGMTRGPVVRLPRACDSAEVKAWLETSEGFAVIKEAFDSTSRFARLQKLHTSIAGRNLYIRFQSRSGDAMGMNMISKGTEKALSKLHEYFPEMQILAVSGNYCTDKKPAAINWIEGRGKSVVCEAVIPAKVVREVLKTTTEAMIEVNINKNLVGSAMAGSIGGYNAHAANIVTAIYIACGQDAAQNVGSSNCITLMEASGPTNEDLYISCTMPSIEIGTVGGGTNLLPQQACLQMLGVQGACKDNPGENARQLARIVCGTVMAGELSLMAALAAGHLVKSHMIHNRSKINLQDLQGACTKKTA

[2] = target: T2, 3-hydroxy-3-methylglutaryl-coenzyme A reductase (Rattus norvegicus, UniProt P51639); assay: as §1; settings: read-out: I50
T2 sequence (P51639 whole entry): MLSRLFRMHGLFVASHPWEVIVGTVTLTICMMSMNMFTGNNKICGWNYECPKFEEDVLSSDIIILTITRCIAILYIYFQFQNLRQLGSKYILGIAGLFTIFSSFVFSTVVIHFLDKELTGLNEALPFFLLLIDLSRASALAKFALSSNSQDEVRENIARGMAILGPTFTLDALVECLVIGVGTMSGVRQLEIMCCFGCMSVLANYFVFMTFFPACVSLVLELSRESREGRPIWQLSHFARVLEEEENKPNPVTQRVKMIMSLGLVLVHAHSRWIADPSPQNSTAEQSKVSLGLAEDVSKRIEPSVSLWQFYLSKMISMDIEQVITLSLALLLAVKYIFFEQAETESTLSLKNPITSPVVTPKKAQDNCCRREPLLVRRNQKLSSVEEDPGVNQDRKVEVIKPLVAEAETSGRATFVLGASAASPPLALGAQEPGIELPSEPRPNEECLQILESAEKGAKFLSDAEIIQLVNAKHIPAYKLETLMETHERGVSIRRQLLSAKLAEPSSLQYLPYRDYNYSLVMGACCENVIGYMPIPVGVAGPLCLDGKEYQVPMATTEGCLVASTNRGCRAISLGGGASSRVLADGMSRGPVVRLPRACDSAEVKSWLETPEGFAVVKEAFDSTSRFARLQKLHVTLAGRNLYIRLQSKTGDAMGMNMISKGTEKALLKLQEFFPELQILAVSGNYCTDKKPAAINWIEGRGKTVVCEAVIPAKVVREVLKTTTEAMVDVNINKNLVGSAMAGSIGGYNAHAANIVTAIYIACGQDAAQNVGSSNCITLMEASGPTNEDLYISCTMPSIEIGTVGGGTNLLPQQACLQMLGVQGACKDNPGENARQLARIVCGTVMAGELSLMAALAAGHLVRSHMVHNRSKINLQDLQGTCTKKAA

Structure (SMILES) | IC50 [1] [µM] | IC50 [2] [µM]
CCC(C)(C)C(=O)OC[C@H]1CCCC[C@@H]1CCC(O)C[C@@H](O)CC(=O)O (stereo partly specified) | 4.6 | –
CC[C@H](C)C(=O)OC[C@H]1CCCC[C@@H]1CCC(=O)C[C@@H](O)CC(=O)O | – | 320
C[C@H]1C=CC[C@H](COC(=O)C(C)(C)C)[C@H]1CCC(O)CC(O)CC(=O)O (stereo partly specified) | 1500 | –
CCC[C@@H]1CC[C@H](C)[C@H](CC[C@@H](O)C[C@@H](O)CC(=O)O)[C@H]1COC(=O)C(C)(C)CC | 0.008 | –

Continued, values first:

IC50 [1] [µM] | IC50 [2] [µM] | Structure (SMILES)
4.9 | – | CCC[C@@H]1CCC[C@H](/C=C/[C@@H](O)C[C@@H](O)CC(=O)O)[C@H]1COC(=O)C(C)(C)CC
1.7 | – | CCC[C@@H]1CCC[C@H](CC[C@@H](O)C[C@@H](O)CC(=O)O)[C@H]1COC(=O)C(C)(C)CC
